Results as given in patent publication US20090093454A1, “Chemical Compounds” (priority 2005, published 2009).
Where a name gives a salt, the structure may show the parent alone. Read-outs that look alike come from different tables or passages of the source.

Tests used:
Type in all cases: cell-based
[1] = Compound cytotoxicity in absence of virus (CellTiter-Glo); conditions: human
Method: (§1) Compounds were profiled against two HIV-1 viruses, the M-tropic (CCR5 utilizing) Ba-L strain and the T-tropic (CXCR4 utilizing) IIIB strain. Both viruses were propagated in human peripheral blood lymphocytes. Compounds were tested for there ability to block infection of the HOS cell line (expressing hCXCR4/hCCR5/hCD4/pHIV-LTR-luciferase) by either HIV-1 Ba-L or HIV-1, IIIB. Compound cytotoxicity was also examined in the absence of virus addition.
(§2) HOS cells (expressing hCXCR4/hCCR5/hCD4/pHIV-LTR-luciferase) were harvested and diluted in Dulbeccos modified Eagles media supplemented with 2% FCS and non-essential amino acid to a concentration of 60,000 cells/ml. The cells were plated into 96-well plates (100 ul per well) and the plates were placed in a tissue culture incubator (37° C.; 5% CO2/95% air) for a period of 24 h.
(§3) Subsequently, 50 ul of the desired drug solution (4 times the final concentration) was added to each well and the plates were returned to the tissue culture incubator (37° C.; 5% CO2/95% air) for 1 h. Following this incubation 50 ul of diluted virus was added to each well (approximately 2 million RLU per well of virus). The plates were returned to the tissue culture incubator (37° C.; 5% CO2/95% air) and were incubated for a further 96 h.
(§4) Following this incubation the endpoint for the virally infected cultures was quantified following addition of Steady-Glo Luciferase assay system reagent (Promega, Madison, Wis.). Cell viability or non-infected cultures was measured using a CellTiter-Glo luminescent cell viability assay system (Promega, Madison, Wis.). All luminescent readouts are performed on a Topcount luminescence detector (Packard, Meridien, Conn.).
as §1, with “Ba-L was” for “Both viruses were”, “either peripheral blood lymphocytes or SupT1/CCR5+/CXCR4+ cells. IIIB was propagated in” for “human”, “their” for “there”
as §2, with “FCS” for “FCS and non-essential amino acid”, “120,000” for “60,000”, “(50 μl” for “(100 ul”, “(370°” for “(37°”
(§5) Subsequently, 50 μl of the desired drug solution (2 times the final concentration) was added to each well and the plates were returned to the tissue culture incubator (370° C.; 5% CO2/95% air) for 1 h. Following this incubation, 60 μl of diluted virus (4 times the final concentration) was added to 60 μl of 2× the final desired concentration of the compound and 100 μl of this compound/virus mix was added to each well (approximately 2 million RLU per well of virus). The plates were returned to the tissue culture incubator (370° C.; 5% CO2/95% air) and were incubated for a further 96 h.

human CXCR4 = biological target: T1, human CXCR4 (Homo sapiens, UniProt P61073); experiment: Functional FLIPR assay (block of SDF-1 alpha calcium response); conditions: HEK-293 cells with human CXCR4 and Gqi5 BacMam; antagonism of SDF-1 alpha [Ca2+]i change; read-out: Functional assay (pIC50) (converted)
T1 construct: expressed in transfected cells; host or cells: HEK-293 cells (stably expressing human macrophage scavenging receptor) transduced with human CXCR4 BacMam and Gqi5 BacMam baculovirus
T1 sequence (P61073 whole entry): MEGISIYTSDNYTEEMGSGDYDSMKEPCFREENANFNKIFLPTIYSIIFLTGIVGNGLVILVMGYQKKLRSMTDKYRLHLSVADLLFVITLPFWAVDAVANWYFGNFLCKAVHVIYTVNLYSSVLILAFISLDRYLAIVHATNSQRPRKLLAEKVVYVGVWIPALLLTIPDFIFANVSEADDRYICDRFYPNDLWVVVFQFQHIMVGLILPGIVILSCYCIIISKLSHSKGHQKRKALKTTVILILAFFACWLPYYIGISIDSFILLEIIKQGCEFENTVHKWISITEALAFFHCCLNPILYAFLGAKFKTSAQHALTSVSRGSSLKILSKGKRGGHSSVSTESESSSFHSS
Method: Human embryonic kidney (HEK-293) cells were maintained and harvested as described above. Cells were plated in 96-well, black clear bottom, poly-lysine coated plates at a concentration of 40,000 cells per well in a final volume of 100 ul containing human CXCR4BacMam (MOI=25) and Gqi5 BacMam (MOI=12.5). The cells were incubated at 37° C., 5% CO2, 95% humidity for 24 h to allow for protein expression.
After the required incubation time the cells were washed once with 50 ul of fresh serum-free DMEM/F12 media containing probenicid. 50 ul of dye solution was then added to the cells (Calcium Plus Assay Kit Dye; Molecular Devices) was dissolved in 200 ml of the above probenicid/BSA containing media and incubated for 1 h. Cell plates were transferred to a Fluorometric Imaging Plate Reader (FLIPR). Upon addition the effect of the compounds on the change in [Ca^2+]i was examined to determine if the compounds were agonists or antagonists (ability to block SDF-1 alpha activity) at the CXCR4 receptor. IC50 values are determined and pKb values are calculated using the Leff and Dougall equation: KB=IC50/((2+([agonist]/EC50̂b) ̂1/b−1) Where IC50 is that defined by the antagonist concentration-response curve [agonist] is the EC80 concentration of agonist used EC50 is that defined by the agonist concentration-response curve b is the slope of the agonist concentration-response curve.

HIV-1 IIIB = experiment: HOS HIV-1 infectivity assay, IIIB strain; conditions: 96 h
Method: as §1, §2, §3, §4
as §1, with “Ba-L was” for “Both viruses were”, “either peripheral blood lymphocytes or SupT1/CCR5+/CXCR4+ cells. IIIB was propagated in” for “human”, “their” for “there”
as §2, with “FCS” for “FCS and non-essential amino acid”, “120,000” for “60,000”, “(50 μl” for “(100 ul”, “(370°” for “(37°”
as §5

[2] = HOS cells, no virus added, cell viability, read-out: Cytotox (pIC50) (converted)
[3] = Human immunodeficiency virus 1, T-tropic (CXCR4 utilizing) IIIB strain, HOS cells, luciferase, read-out: HOS (3B)
[4] = Human immunodeficiency virus 1, IIIB, HOS, read-out: HOS (3B) (μM)

Row | Compound | IC50 at 96 h [1, 2] [µM] | IC50 (human CXCR4) [µM] | IC50 (HIV-1 IIIB; [3]) [µM] | IC50 at 96 h [1] [µM] | IC50 (HIV-1 IIIB; [4]) [µM]
1 | CN(C)CCCn1c(CN2CCC[C@@H]3CCc4cccnc4[C@@H]32)nc2ccccc21 [Example 11A, (3-{2-[(4aS,10bR)-3,4,4a,5,6,10b-Hexahydro-1,10-phenanthrolin-1(2H)-ylmethyl]-1H-benzimidazol-1-yl}propyl)dimethylamine] | > 100 | 0.851 | 0.53 | – | –
2 | c1cnc2c(c1)CC[C@@H]1CCCN(Cc3nc4ccccc4n3Cc3ccncc3)[C@H]21 (racemic) [Example 12, (cis)-1-{[1-(4-Pyridinylmethyl)-1H-benzimidazol-2-yl]methyl}-1,2,3,4,4a,5,6,10b-octahydro-1,10-phenanthroline] | > 100 | 1.05 | 0.77 | – | –
3 | c1cnc2c(c1)CC[C@H]1CCCN(Cc3nc4ccccc4[nH]3)[C@H]21 (racemic) [Example 6, (trans)-1-(1H-Benzimidazol-2-ylmethyl)-1,2,3,4,4a,5,6,10b-octahydro-1,10-phenanthroline] | – | 0.126 | – | 31.6 | 0.47
4 | CN(C)CCCn1c(CN2CCC[C@@H]3CCc4cccnc4[C@H]32)nc2ccccc21 (stereo in doubt) [Example 10B, (3-{2-[(4aS,10bS)-3,4,4a,5,6,10b-Hexahydro-1,10-phenanthrolin-1(2H)-ylmethyl]-1H-benzimidazol-1-yl}propyl)dimethylamine] | > 100 | 0.0933 | 0.14 | – | –
5 | NCCCn1c(CN2CCC[C@@H]3CCc4cccnc4[C@H]32)nc2ccccc21 (racemic) [Example 8, (trans)-3-[2-(3,4,4a,5,6,10b-Hexahydro-1,10-phenanthrolin-1(2H)-ylmethyl)-1H-benzimidazol-1-yl]-1-propanamine] | > 100 | 0.126 | 0.22 | – | –
6 | CN1CCN(c2cccc3nc(CN4CCC[C@H]5CCc6cccnc6[C@H]54)cn23)CC1 (racemic) [Example 15B, (cis)-1-{[5-(4-Methyl-1-piperazinyl)imidazo[1,2-a]pyridin-2-yl]methyl}-1,2,3,4,4a,5,6,10b-octahydro-1,10-phenanthroline] | > 100 | 0.00339 | 0.004 | – | –
7 | CN1CCN(c2cccc3nc(CN4CCC[C@H]5CCc6cccnc6[C@H]54)[nH]c23)CC1 (racemic) [Example 33, (cis)-1-{[4-(4-Methyl-1-piperazinyl)-1H-benzimidazol-2-yl]methyl}-1,2,3,4,4a,5,6,10b-octahydro-1,10-phenanthroline] | 37.2 | 0.0024 | 0.0035 | – | –
8 | NCCCn1c(CN2CCC[C@H]3CCc4cccnc4[C@H]32)nc2ccccc21 (racemic) [Example 9, (cis)-3-[2-(3,4,4a,5,6,10b-Hexahydro-1,10-phenanthrolin-1(2H)-ylmethyl)-1H-benzimidazol-1-yl]-1-propanamine] | 28.8 | 0.0195 | 0.073 | – | –
9 | CN1CCN(c2cccc3nc(CN4CCC[C@@H]5CCc6cccnc6[C@@H]54)cn23)CC1 [Example 22, (4aS,10bR)-1-{[5-(4-Methyl-1-piperazinyl)imidazo[1,2-a]pyridin-2-yl]methyl}-1,2,3,4,4a,5,6,10b-octahydro-1,10-phenanthroline] | > 100 | 0.0316 | 0.1 | – | –
10 | CN1CCN(c2cccc3[nH]c(CN4CCC[C@@H]5CCc6cccnc6[C@H]54)nc23)CC1 (racemic) [Example 32, (trans)-1-{[4-(4-Methyl-1-piperazinyl)-1H-benzimidazol-2-yl]methyl}-1,2,3,4,4a,5,6,10b-octahydro-1,10-phenanthroline trifluoroacetate] | > 10 | 0.479 | 0.26 | – | –
11 | CN(C)CCCn1c(CN2CCC[C@H]3CCc4cccnc4[C@H]32)nc2ccccc21 [Example 11B, (3-{2-[(4aR,10bS)-3,4,4a,5,6,10b-Hexahydro-1,10-phenanthrolin-1(2H)-ylmethyl]-1H-benzimidazol-1-yl}propyl)dimethylamine] | > 100 | 0.0105 | 0.035 | – | –
12 | CN1CCN(c2cccc3nc(CN4CCC[C@H]5CCc6cccnc6[C@H]54)cn23)CC1 [Example 27, (4aR,10bS)-1-{[5-(4-Methyl-1-piperazinyl)imidazo[1,2-a]pyridin-2-yl]methyl}-1,2,3,4,4a,5,6,10b-octahydro-1,10-phenanthroline] | > 10 | 0.00126 | 0.004 | – | –
13 | CN1CCCC(Cn2c(CN3CCC[C@H]4CCc5cccnc5[C@H]43)nc3ccccc32)C1 (mixture of isomers) [Example 13, (cis)-1-({1-[(1-Methyl-3-piperidinyl)methyl]-1H-benzimidazol-2-yl}methyl)-1,2,3,4,4a,5,6,10b-octahydro-1,10-phenanthroline] | > 100 | 0.00759 | 0.05 | – | –
14 | CN(C)CCCn1c(CN2CCC[C@H]3CCc4cccnc4[C@@H]32)nc2ccccc21 (stereo in doubt) [Example 10A, (3-{2-[(4aR,10bR)-3,4,4a,5,6,10b-Hexahydro-1,10-phenanthrolin-1(2H)-ylmethyl]-1H-benzimidazol-1-yl}propyl)dimethylamine] | > 100 | 0.182 | 0.33 | – | –
15 | c1cnc2c(c1)CC[C@@H]1CCCN(Cc3nc4ccccc4[nH]3)[C@H]21 (racemic) [Example 7, (cis)-1-(1H-Benzimidazol-2-ylmethyl)-1,2,3,4,4a,5,6,10b-octahydro-1,10-phenanthroline] | – | 0.437 | – | > 100 | 1
16 | CN1CCN(c2cccc3nc(CN4CCC[C@@H]5CCc6cccnc6[C@H]54)cn23)CC1 (racemic) [Example 15A, (trans)-1-{[5-(4-Methyl-1-piperazinyl)imidazo[1,2-a]pyridin-2-yl]methyl}-1,2,3,4,4a,5,6,10b-octahydro-1,10-phenanthroline] | > 100 | 0.0407 | 0.033 | – | –
